According to the supplement of paper PMC10331698:
± gives the standard deviation of the averaged measurements.

Experiments:
Experiment in all cases: level (log10 ratio to DMSO vehicle control); higher = higher biomarker level / cell amount than vehicle control
[1] = compound: O=S(=O)(OCC(F)(F)F)C(F)(F)C(F)(F)C(F)(F)C(F)(F)F [2,2,2-Trifluoroethyl perfluorobutanesulfonate]; settings: in DMSO
Experimental: (§1)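 BioMAP Diversity Plus panel of 12 human primary cell co-culture systems (3C, 4H, LPS, SAg, BT, BF4T, BE3C, CASM3C, HDF3CGF, KF3CT, MyoF, Mphg). Compounds were added 1 h before stimulation and left for 24 h (MyoF 48 h; BT 72 h for soluble read-outs or 6 d for IgG). Biomarkers were read by ELISA, cytotoxicity by SRB, PBMC viability and proliferation by Alamar Blue. Each well value was divided by the mean of 8 DMSO control wells on the same plate and log10 transformed; duplicate blinded samples were tested at 4 concentrations.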

[2] = compound: OCCC(F)(F)C(F)(F)C(F)(F)C(F)(F)C(F)(F)C(F)(F)C(F)(F)C(F)(F)F [8:2 Fluorotelomer alcohol]; settings: 6700 nM; in DMSO
Experimental: as §1

[3] = compound: O=P(O)(O)CCC(F)(F)C(F)(F)C(F)(F)C(F)(F)C(F)(F)C(F)(F)F [2-(Perfluorohexyl)ethylphosphonic acid]; settings: in DMSO
Experimental: as §1

[4] = compound: C=CC(=O)OCCC(F)(F)C(F)(F)C(F)(F)C(F)(F)C(F)(F)C(F)(F)C(F)(F)C(F)(F)F [8:2 Fluorotelomer acrylate]; settings: in DMSO
Experimental: as §1

[5] = compound: O=C(Cl)C(F)(F)C(F)(F)C(F)(F)C(=O)Cl [Hexafluoroglutaryl chloride]; settings: in DMSO
Experimental: as §1

[6] = compound: C=C(C)C(=O)OCC(F)(F)C(F)(F)C(F)(F)F [2,2,3,3,4,4,4-Heptafluorobutyl methacrylate]; settings: in DMSO
Experimental: as §1

[7] = compound: OCCCCC(F)(F)C(F)(F)C(F)(F)C(F)(F)F [4:4 Fluorotelomer alcohol]; settings: in DMSO
Experimental: as §1

| Test System | level (log10) ([1]; 6700 nM) | level (log10) ([1]; 20000 nM) | level (log10) ([1]; 60000 nM) | level (log10) [2] | level (log10) ([3]; 6700 nM) | level (log10) ([3]; 20000 nM) | level (log10) ([3]; 60000 nM) | level (log10) ([4]; 6700 nM) | level (log10) ([4]; 20000 nM) | level (log10) ([4]; 60000 nM) | level (log10) ([5]; 6700 nM) | level (log10) ([5]; 20000 nM) | level (log10) ([5]; 60000 nM) | level (log10) ([6]; 6700 nM) | level (log10) ([6]; 20000 nM) | level (log10) ([6]; 60000 nM) | level (log10) ([7]; 6700 nM) | level (log10) ([7]; 20000 nM) | level (log10) ([7]; 60000 nM) |
| --- | --- | --- | --- | --- | --- | --- | --- | --- | --- | --- | --- | --- | --- | --- | --- | --- | --- | --- | --- |
| BT:sIL-2 | 0.015 ± 0.0042 | 0.116 ± 0.068 | 0.102 ± 0.014 | 0.001 ± 0.052 | 0.076 ± 0.013 | 0.023 ± 0.0071 | 0.0355 ± 0.11 | 0.051 ± 0.0042 | -0.061 ± 0.17 | -0.036 ± 0.13 | -0.0205 ± 0.07 | -0.001 ± 0.1 | 0.0415 ± 0.066 | 0.0115 ± 0.035 | 0.026 ± 0.082 | -0.0115 ± 0.042 | -0.0015 ± 0.044 | -0.0135 ± 0.043 | -0.017 ± 0.092 |
| BF4T:Keratin 8/18 | 0.002 ± 0.016 | -0.0025 ± 0.016 | -0.0335 ± 0.0078 | -0.008 ± 0.0028 | -0.0045 ± 0.015 | -0.0065 ± 0.012 | 0.0105 ± 0.022 | -0.014 ± 0.0042 | -0.0045 ± 0.00071 | 0.0115 ± 0.015 | -0.0245 ± 0.053 | -0.018 ± 0.03 | -0.0345 ± 0.035 | -0.013 ± 0.035 | -0.029 ± 0.014 | -0.0245 ± 0.039 | 0.012 ± 0.0028 | -0.001 ± 0.0014 | 0.009 ± 0.034 |
| BE3C:CD54/ICAM-1 | -0.002 ± 0.0071 | -0.013 ± 0.0071 | -0.018 ± 0.0057 | 0.001 ± 0.0099 | -0.01 ± 0.0028 | -0.02 ± 0.021 | -0.0085 ± 0.03 | -0.016 | 0 ± 0.0014 | 0.019 ± 0.04 | 0.002 ± 0.0071 | -0.002 ± 0.017 | 0.0075 ± 0.025 | 0.009 ± 0.023 | -0.004 ± 0.034 | 0.005 ± 0.0014 | 0.0085 ± 0.015 | -0.0025 ± 0.023 | -0.0045 ± 0.0064 |
| BE3C:CXCL8/IL-8 | 0.001 ± 0.0071 | -0.0035 ± 0.026 | 0.0225 ± 0.021 | -0.054 ± 0.0042 | -0.064 ± 0.017 | -0.0635 ± 0.0064 | -0.0555 ± 0.06 | -0.019 ± 0.027 | -0.013 ± 0.033 | 0.043 ± 0.021 | 0.0585 ± 0.046 | 0.0345 ± 0.077 | 0.0555 ± 0.083 | 0.016 ± 0.042 | -0.008 ± 0.031 | 0.013 ± 0.058 | -0.013 ± 0.016 | -0.0155 ± 0.0021 | 0.029 ± 0.04 |
| LPS:SRB | 0.007 ± 0.0014 | -0.0035 ± 0.0092 | -0.004 ± 0.0071 | -0.0125 ± 0.011 | -0.003 ± 0.0057 | -0.006 ± 0.0028 | -0.023 ± 0.021 | 0.0015 ± 0.0021 | -0.005 ± 0.0014 | 0.004 ± 0.0042 | -0.0075 ± 0.0064 | 0.0015 ± 0.012 | 0.003 ± 0.0014 | -0.012 ± 0.0014 | -0.0075 ± 0.0021 | 0.002 ± 0.0042 | 0.02 ± 0.0057 | 0.022 ± 0.024 | 0.017 ± 0.033 |
| BT:sTNF-alpha | 0.11 ± 0.076 | 0.165 ± 0.0021 | 0.189 ± 0.026 | 0.093 ± 0.034 | 0.114 ± 0.04 | 0.0475 ± 0.018 | 0.048 ± 0.24 | 0.128 ± 0.0057 | 0.034 ± 0.027 | 0.159 ± 0.14 | 0.0505 ± 0.025 | -0.0155 ± 0.037 | 0.104 ± 0.07 | 0.0155 ± 0.043 | 0.023 ± 0.058 | 0.0675 ± 0.0092 | -0.0875 ± 0.033 | -0.046 ± 0.13 | -0.0085 ± 0.17 |
| SAg:CXCL8/IL-8 | 0.0205 ± 0.029 | 0.034 ± 0.024 | 0.134 ± 0.086 | -0.0115 ± 0.047 | -0.003 ± 0.038 | 0.015 ± 0.023 | 0.143 ± 0.0021 | -0.021 ± 0.0099 | -0.029 ± 0.0099 | -0.0185 ± 0.043 | -0.024 ± 0.0071 | -0.029 ± 0.042 | 0.0065 ± 0.005 | -0.003 ± 0.061 | -0.002 ± 0.075 | 0.006 ± 0.02 | 0.0075 ± 0.0021 | 0.002 ± 0.0057 | -0.0015 ± 0.025 |
| SAg:PBMC Cytotoxicity | 0.0065 ± 0.011 | -0.013 | 0.012 ± 0.0057 | -0.0295 ± 0.012 | -0.019 ± 0.023 | 0.012 ± 0.037 | -0.0165 ± 0.026 | -0.01 ± 0.013 | -0.006 ± 0.027 | -0.0005 ± 0.05 | 0.0075 ± 0.0078 | -0.022 ± 0.018 | 0.0185 ± 0.021 | -0.0105 ± 0.037 | 0.015 ± 0.011 | 0.0075 ± 0.044 | -0.0115 ± 0.015 | 0.014 ± 0.011 | 0.0195 ± 0.03 |
| BE3C:CXCL10/IP-10 | 0.021 ± 0.0057 | 0.003 ± 0.0028 | 0.011 ± 0.011 | -0.0515 ± 0.057 | -0.056 ± 0.058 | -0.057 ± 0.067 | -0.0455 ± 0.09 | -0.0215 ± 0.015 | -0.0165 ± 0.023 | 0.0005 ± 0.05 | 0.0325 ± 0.035 | 0.032 ± 0.028 | 0.0265 ± 0.043 | 0.0365 ± 0.029 | 0.0225 ± 0.04 | 0.0135 ± 0.035 | -0.0035 ± 0.0021 | 0 | 0.014 ± 0.017 |
| 3C:HLA-DR | -0.01 ± 0.011 | -0.0135 ± 0.0092 | -0.032 ± 0.0014 | -0.0245 ± 0.018 | -0.0055 ± 0.012 | -0.0135 ± 0.00071 | -0.0085 ± 0.044 | 0.009 ± 0.0071 | 0.0055 ± 0.013 | 0.0175 ± 0.029 | -0.008 ± 0.023 | -0.006 ± 0.013 | -0.0085 ± 0.0035 | -0.01 ± 0.013 | -0.0055 ± 0.0078 | 0.001 ± 0.0042 | -0.002 ± 0.042 | -0.0065 ± 0.026 | 0.006 ± 0.033 |
| BT:PBMC Cytotoxicity | 0.0225 ± 0.022 | 0.0235 ± 0.056 | 0.053 ± 0.062 | 0.001 ± 0.038 | 0.0025 ± 0.053 | 0.0325 ± 0.021 | 0.07 ± 0.047 | 0.011 ± 0.018 | -0.0035 ± 0.035 | -0.021 ± 0.079 | -0.0035 ± 0.039 | -0.019 ± 0.04 | -0.022 ± 0.016 | 0.0065 ± 0.035 | 0.005 ± 0.03 | 0.004 ± 0.055 | -0.0265 ± 0.0064 | -0.035 ± 0.0014 | -0.0195 ± 0.064 |
| BT:sIL-17F | 0.003 ± 0.023 | 0.0145 ± 0.0064 | -0.0275 ± 0.005 | 0.013 ± 0.065 | 0.0655 ± 0.084 | 0.008 ± 0.0014 | -0.0175 ± 0.069 | -0.018 ± 0.061 | -0.0565 ± 0.022 | -0.03 ± 0.014 | 0.0195 ± 0.09 | -0.095 ± 0.0071 | -0.0065 ± 0.005 | -0.0825 ± 0.14 | 0.0525 ± 0.083 | 0.0455 ± 0.033 | -0.0645 ± 0.0092 | -0.107 ± 0.015 | -0.161 ± 0.15 |
